Data as given in patent US10517862B2, “Fused heterocyclic compound derivative and application thereof” (NHWA PHARMA. CORPORATION, priority 2015, dated 2019).

Assays:
D3 receptor = biological target: T1, D3 receptor (Homo sapiens, UniProt P35462); experiment: D3 receptor assay ([3H]-Spiperone, HEK-293 cells); format: binding; details: for inhibition at 10 µM: test compound final concentration 10 μmol/L, [3H]-Spiperone, HEK-293 cells, read-out: D3 Inhibition rate (%); for affinity with D3 (in words): summary of in vitro assay
T1 construct: expressed in transfected cells; host or cells: HEK-293
T1 sequence (P35462 whole entry): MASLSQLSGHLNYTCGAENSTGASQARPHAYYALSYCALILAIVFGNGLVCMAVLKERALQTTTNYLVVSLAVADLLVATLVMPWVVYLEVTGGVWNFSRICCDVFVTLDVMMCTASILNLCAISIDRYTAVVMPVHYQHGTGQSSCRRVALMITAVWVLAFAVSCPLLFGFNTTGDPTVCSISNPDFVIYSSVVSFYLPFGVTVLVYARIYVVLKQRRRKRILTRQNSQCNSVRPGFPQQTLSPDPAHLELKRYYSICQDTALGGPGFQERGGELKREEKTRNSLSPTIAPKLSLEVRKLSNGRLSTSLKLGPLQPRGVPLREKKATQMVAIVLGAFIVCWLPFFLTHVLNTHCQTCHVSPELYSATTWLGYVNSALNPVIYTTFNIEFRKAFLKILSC
Method: Then the cells were centrifuged at 1000 rpm for 5 min, the supernatant was discarded, and the cell pellets was collected and stored in a −20° C. fridge for reservation. It was re-suspended with Tris-Cl (pH 7.4) when the assay was performed.
Tris was divided into aliquots by Genetimes Technology Inc.
Competitive binding test for receptors: 20 μl of each of the test compounds and 20 μl of the radioactive ligand together with 160 μl of the receptor proteins were added into the reaction tubes, and the final concentrations of the test compound and the positive drug were all 10 μmol/L. After 50 min of incubation in 30° C. water bath, the tubes were immediately moved to ice bath to terminate the reactions. GF/C glass fiber filter papers were used for rapid sucking filtration on a Millipore cell sample collector, 3 ml of elution buffer (50 mM Tris-HCl, PH 7.4) was applied for 3 times, and microwave was applied for 4-5 min for drying. The filter paper was moved into 0.5 ml centrifuge tube, and 500 μl of liposoluble scintillation cocktail was added. The tubes were allowed to stand still for over 30 min in dark, and the intensities of radioactivity were measured by a counter.

5HT2A receptor = 5HT2A receptor (Rattus norvegicus, UniProt P14842); experiment: 5HT2A receptor binding assay ([3H]-Ketanserin, rat striatum membrane); details: for inhibition at 10 µM: read-out: 5HT2A Inhibition rate (%); for affinity with 5HT2A (in words): summary of in vitro assay
5HT2A receptor, sequence (P14842 whole entry): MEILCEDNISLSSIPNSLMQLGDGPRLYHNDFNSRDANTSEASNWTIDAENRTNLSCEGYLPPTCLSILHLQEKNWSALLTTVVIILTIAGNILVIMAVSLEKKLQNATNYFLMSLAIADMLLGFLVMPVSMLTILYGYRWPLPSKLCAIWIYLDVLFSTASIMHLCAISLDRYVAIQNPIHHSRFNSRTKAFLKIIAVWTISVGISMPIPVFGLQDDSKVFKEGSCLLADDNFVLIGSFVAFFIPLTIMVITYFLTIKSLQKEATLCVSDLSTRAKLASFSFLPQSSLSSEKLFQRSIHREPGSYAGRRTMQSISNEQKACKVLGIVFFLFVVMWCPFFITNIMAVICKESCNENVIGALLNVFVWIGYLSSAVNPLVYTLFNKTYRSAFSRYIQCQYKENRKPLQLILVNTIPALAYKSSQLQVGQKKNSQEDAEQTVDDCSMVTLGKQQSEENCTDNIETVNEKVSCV

5HT1A receptor = biological target: T2, 5HT1A receptor (Rattus norvegicus, UniProt P19327); experiment: 5HT1A receptor binding assay (3H-8-OH-DPAT, rat striatum membrane); details: for inhibition at 10 µM: test compound final concentration 10^−5 M, 3H-8-OH-DPAT, rat striatum membrane, read-out: 5HT1A Inhibition rate (%); for affinity with 5HT1A (in words): summary of in vitro assay
T2 construct: Rats were decapitated on ice; from tissue; host or cells: rat brain striatum
T2 sequence (P19327 1-422): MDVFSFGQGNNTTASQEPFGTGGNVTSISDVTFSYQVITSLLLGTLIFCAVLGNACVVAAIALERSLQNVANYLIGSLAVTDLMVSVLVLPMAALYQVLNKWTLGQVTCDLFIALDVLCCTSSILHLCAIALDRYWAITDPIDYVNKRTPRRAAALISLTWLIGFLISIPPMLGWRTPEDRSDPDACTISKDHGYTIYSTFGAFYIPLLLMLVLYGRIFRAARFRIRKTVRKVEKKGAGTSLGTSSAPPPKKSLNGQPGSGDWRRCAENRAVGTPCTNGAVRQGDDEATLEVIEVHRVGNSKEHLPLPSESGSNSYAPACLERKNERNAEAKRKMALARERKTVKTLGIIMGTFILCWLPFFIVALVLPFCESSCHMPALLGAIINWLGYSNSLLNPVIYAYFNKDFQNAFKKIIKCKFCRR
Method: Preparation of 5HT1A Membrane
Rats were decapitated on ice. […] Incubation at 37° C. was conducted for 10 min. […] Centrifugation was conducted at 12000 rpm, 4° C. for 20 min. […] Centrifugation was conducted and repeated 3 times.
(§1) Materials for the Receptor Binding Assay

5HT2C receptor = biological target: T3, 5HT2C receptor (Rattus norvegicus, UniProt P08909); experiment: 5HT2C receptor binding assay ([3H]-mesulergine, rat striatum membrane); details: for inhibition at 10 µM: test compound final concentration 10^−5 M, [3H]-mesulergine, rat striatum membrane, read-out: 5HT2C Inhibition rate (%); for affinity with 5HT2C (in words): summary of in vitro assay
T3 construct: from tissue; host or cells: rat brain striatum
T3 sequence (P08909 33-460): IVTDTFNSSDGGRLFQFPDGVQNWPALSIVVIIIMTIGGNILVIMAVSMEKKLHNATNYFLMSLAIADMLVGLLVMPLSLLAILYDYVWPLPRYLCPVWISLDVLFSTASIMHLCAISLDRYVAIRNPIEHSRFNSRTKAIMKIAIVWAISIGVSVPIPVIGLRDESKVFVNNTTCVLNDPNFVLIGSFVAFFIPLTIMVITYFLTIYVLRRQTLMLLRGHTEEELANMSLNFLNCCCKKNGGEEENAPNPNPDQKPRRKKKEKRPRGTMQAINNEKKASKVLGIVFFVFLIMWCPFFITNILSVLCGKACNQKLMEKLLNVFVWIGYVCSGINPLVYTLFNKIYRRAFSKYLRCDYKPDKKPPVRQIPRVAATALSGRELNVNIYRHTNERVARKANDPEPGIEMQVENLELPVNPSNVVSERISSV
Method: Preparation of 5HT2C Membrane
Rats were decapitated on ice. […] Centrifugation was conducted.
as §1

Histamine H1 receptor = Histamine H1 receptor (Rattus norvegicus, UniProt P31390); experiment: Histamine H1 receptor binding assay (3H-pyrilamine, rat cerebellum membrane); details: for inhibition at 10 µM: read-out: H1 Inhibition rate (%); for affinity with H1 (in words): summary of in vitro assay
Histamine H1 receptor, sequence (P31390 whole entry): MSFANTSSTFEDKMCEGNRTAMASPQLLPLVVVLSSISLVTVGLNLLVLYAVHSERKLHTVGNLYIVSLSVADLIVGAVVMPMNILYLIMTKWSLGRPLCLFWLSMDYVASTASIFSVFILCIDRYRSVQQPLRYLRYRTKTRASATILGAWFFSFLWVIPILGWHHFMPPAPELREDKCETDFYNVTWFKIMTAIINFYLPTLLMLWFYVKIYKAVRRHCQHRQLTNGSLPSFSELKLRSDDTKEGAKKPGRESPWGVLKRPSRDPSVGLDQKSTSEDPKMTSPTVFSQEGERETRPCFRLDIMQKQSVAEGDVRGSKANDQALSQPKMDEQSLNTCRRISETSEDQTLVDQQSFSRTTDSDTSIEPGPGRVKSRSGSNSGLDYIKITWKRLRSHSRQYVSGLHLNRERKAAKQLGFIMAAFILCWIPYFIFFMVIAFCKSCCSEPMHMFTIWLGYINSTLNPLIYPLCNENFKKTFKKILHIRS
Method: The supernatant was discarded to give pellets, and homogenate F was added again to the pellets for washing. Centrifugation was conducted and repeated 3 times.
(2) 100 μL of membrane preparation was added into each reaction tube.

[1] = tested on: α1 norepinephrine receptor; experiment: α1 norepinephrine receptor binding assay (3H-prazosin, rat cortex membrane); details: for α1 Inhibition rate (%): test compound final concentration 10^−5 M, 3H-prazosin, rat cortex membrane; for affinity with α1 (in words): summary of in vitro assay
Source text: Preparation of Receptor Membrane of Norepinephrine
α1 Norepinephrine Receptor Binding Assay

D2 receptor = D2 receptor binding assay (3H-Spiperone, rat striatum membrane); details: for D2 Inhibition rate (%): test compound final concentration 10^−5 M, 3H-Spiperone, rat striatum membrane; for affinity with D2 (in words): summary of in vitro assay
Method: Preparation of D2 Membrane
Rats were decapitated on ice. […] The weight of the homogenized tubes were adjusted using a balance, and centrifugation was conducted. […] Centrifugation was conducted.
as §1

| SMILES | inhibition at 10 µM (D3 receptor) [%] | inhibition at 10 µM (5HT2A receptor) [%] | inhibition at 10 µM (5HT1A receptor) [%] | inhibition at 10 µM (5HT2C receptor) [%] | inhibition at 10 µM (Histamine H1 receptor) [%] | α1 Inhibition rate (%) [1] [%] | D2 Inhibition rate (%) (D2 receptor) | affinity with D3 (in words) (D3 receptor) | affinity with 5HT2A (in words) (5HT2A receptor) | affinity with 5HT1A (in words) (5HT1A receptor) | affinity with 5HT2C (in words) (5HT2C receptor) | affinity with H1 (in words) (Histamine H1 receptor) | affinity with α1 (in words) [1] | affinity with D2 (in words) (D2 receptor) |
| --- | --- | --- | --- | --- | --- | --- | --- | --- | --- | --- | --- | --- | --- | --- |
| O=C(CN1CCC(c2noc3cc(F)ccc23)CC1)c1cc2c3c(c1)CCC(=O)N3CCC2 [Compound 1] | 60.9 | 84.9 | 54.6 | 84.6 | 84.9 | 68.75 | 45.89 | – | – | – | – | – | – | – |
| O=C1CCc2cc(C(O)CCN3CCC(c4noc5cc(F)ccc45)CC3)cc3c2N1CCC3 (centres unmarked) [Compound 3] | 93.9 | 92.5 | 91.6 | 61.6 | 42.5 | 51.42 | 97.67 | – | – | – | – | – | – | – |
| O=C1CCc2cc(CCCN3CCC(c4noc5cc(F)ccc45)CC3)cc3c2N1CCC3 [Compound 4] | 92.5 | 94 | 88 | 60 | 44 | 60.91 | 94.22 | – | – | – | – | – | – | – |
| O=C1CCc2cc(C(O)CCCN3CCC(c4noc5cc(F)ccc45)CC3)cc3c2N1CCC3 (centres unmarked) [Compound 6] | 98.5 | 99.1 | 99.6 | 61.6 | 49.1 | 60.91 | 98.48 | high affinities | high affinities | high affinities | low affinities | low affinities | low affinities | high affinities |
| O=C(CCCCN1CCC(c2noc3cc(F)ccc23)CC1)c1cc2c3c(c1)CCC(=O)N3CCC2 [Compound 8] | 72.4 | 93 | 89.5 | 59.5 | 45.5 | 41.19 | 90.17 | – | – | – | – | – | – | – |
| CC1CC(=O)N2CCCc3cc(C(=O)CCCN4CCC(c5noc6cc(F)ccc56)CC4)cc1c32 (centres unmarked) [Compound 9] | 86 | 90.2 | 84 | 54 | 46 | 66.62 | 91.76 | – | – | – | – | – | – | – |
| CC1CC(=O)N2CCCc3cc(CCCCN4CCC(c5noc6cc(F)ccc56)CC4)cc1c32 (centres unmarked) [Compound 10] | 80.2 | 83.5 | 82.9 | 55.9 | 43.9 | 46.48 | 85.88 | – | – | – | – | – | – | – |
| O=C(CN1CCC(c2noc3cc(F)ccc23)CC1)c1cc2c3c(c1)CCN3C(=O)CC2 [Compound 11] | 83.5 | 74.9 | 58.6 | 84.6 | 84.9 | 52.42 | 55.89 | – | – | – | – | – | – | – |
| O=C1CCc2cc(C(O)CCN3CCC(c4noc5cc(F)ccc45)CC3)cc3c2N1CC3 (centres unmarked) [Compound 13] | 94.4 | 96.9 | 93.6 | 53.6 | 46.9 | 53.75 | 96.83 | high affinities | high affinities | high affinities | low affinities | low affinities | low affinities | high affinities |
| O=C1CCc2cc(CCCN3CCC(c4noc5cc(F)ccc45)CC3)cc3c2N1CC3 [Compound 14] | 96.9 | 93.9 | 87 | 57 | 43.9 | 50.91 | 94.65 | high affinities | high affinities | high affinities | low affinities | low affinities | low affinities | high affinities |
| O=C1CCc2cc(C(O)CCCN3CCC(c4noc5cc(F)ccc45)CC3)cc3c2N1CC3 (centres unmarked) [Compound 16] | 98.3 | 98.8 | 99.4 | 55.4 | 38.8 | 51.19 | 98.34 | high affinities | high affinities | high affinities | low affinities | low affinities | low affinities | high affinities |
| O=C1CCc2cc(CCCCN3CCC(c4noc5cc(F)ccc45)CC3)cc3c2N1CC3 [Compound 17] | 96.2 | 99.4 | 99.1 | 51.1 | 35.4 | 46.62 | 99.17 | high affinities | high affinities | high affinities | low affinities | low affinities | low affinities | high affinities |
| O=C(CCCCN1CCC(c2noc3cc(F)ccc23)CC1)c1cc2c3c(c1)CCN3C(=O)CC2 [Compound 18] | 98.1 | 87.8 | 84.3 | 54.3 | 37.8 | 56.48 | 88.10 | – | – | – | – | – | – | – |
| O=C1CCc2cc(C(O)CCCCN3CCC(c4noc5cc(F)ccc45)CC3)cc3c2N1CC3 (centres unmarked) [Compound 19] | 91.5 | 81.1 | 87.1 | 57.1 | 41.1 | 52.47 | 81.45 | – | – | – | – | – | – | – |
| O=C1CCc2cc(CCCCCN3CCC(c4noc5cc(F)ccc45)CC3)cc3c2N1CC3 [Compound 20] | 93.2 | 80.3 | 83 | 53 | 49.3 | 68.86 | 83.23 | – | – | – | – | – | – | – |
